Values quoted from earlier work in patent US9044508B2, “Concentrated aqueous azalide formulations” (INSITE VISION CORPORATION, priority 2013, dated 2015).

Details: aqueous formulation

- pH of maximum stability: about 6.3
Structure (SMILES): CC[C@H]1OC(=O)[C@H](C)[C@@H](O[C@H]2C[C@@](C)(OC)[C@@H](O)[C@H](C)O2)[C@H](C)[C@@H](O[C@@H]2O[C@H](C)C[C@H](N(C)C)[C@H]2O)[C@](C)(O)C[C@@H](C)CN(C)[C@H](C)[C@@H](O)[C@]1(C)O [azithromycin, N-methyl-1′-aza-10-deoxo-10-dihydroerythromycin]
